“Also recorded” adds a separate entry of the source.
What was measured:
Format in all cases: in vivo, mouse
[1] = system: INK-ATTAC transgenic mice; assay: Cardiac stress test (lethal isoproterenol) in INK-ATTAC mice treated with AP20187
Description: To study the impact of senescent cell clearance on health and lifespan, cohorts of INK-ATTAC transgenic mice on FVB×129Sv/E×C57BL/6 mixed or C57BL/6 pure genetic backgrounds were established. At 12 months age, one half of each cohort was injected three times/week with AP20187 to induce apoptosis of p16-positive senescent cells (0.2 mg/kg and 2 mg/kg AP20187 for the mixed and the pure C57BL/6 cohorts, respectively), while the other half of each cohort received vehicle. At 18 months, subsets of male and female mice from each cohort were subjected to a cardiac stress test, in which mice were injected with a lethal dose of isoproterenol (680 mg/kg) and the time to cardiac arrest was recorded.
Cardio-protective signaling pathways are known to provide tolerance to metabolic stresses such as ischemia and hypoxia decline (Granfeldt et al., 2009, Cardiovasc. Res. 83:234-246). […] ATP-dependent K channels (KATP) play a central role in cardio-protective signaling (Gross and Auchampach, 1992, Cardiovasc. Res. 26:1011-1016).). These KATP channels are composed of the pore-forming subunit Kir6.2/Kir6.1, the regulatory subunit Sur2a, and additional accessory proteins. […]

aging mice = assay: Late life muscle strength and condition (grip strength, treadmill, muscle weight, fiber area)
Description: Grip strength was measured in untreated 12 month old mice, and in mice treated with either vehicle or AP20187 at 18 and 28 months of age.
Muscle strength was also assessed by determining exercise duration and distance on a treadmill.
As an additional measure of muscle condition gastrocnemius and tibialis anterior muscles, shown in FIG. 99, where dissected from senolysis treated and untreated 28 month old mice and weighed. As shown in FIGS. 100 and 101 the gastrocnemius and tibialis anterior muscles are heavier in treated mice than in untreated mice, muscle weights from untreated 18 month old mice are included to show the age related decline. Muscle fiber area of the gastrocnemius and tibialis anterior muscles was also used to assess muscle condition.

[2] = system: 3MR or INK-ATTAC mice exposed to cigarette smoke; assay: Cigarette smoke exposure model (COPD), oxygen saturation; conditions: after 2 months of cigarette smoke exposure
Description: Six week-old 3MR (n=35) or INK-ATTAC (n=35) mice were chronically exposed to cigarette smoke generated from a Teague TE-10 system, an automatically-controlled cigarette smoking machine that produces a combination of side-stream and mainstream cigarette smoke in a chamber, which is transported to a collecting and mixing chamber where varying amounts of air is mixed with the smoke mixture. […] Mice received a total of 6 hours of cigarette smoke exposure per day, 5 days a week for 6 months. Each lighted cigarette (3R4F research cigarettes containing 10.9 mg of total particulate matter (TPM), 9.4 mg of tar, and 0.726 mg of nicotine, and 11.9 mg carbon monoxide per cigarette [University of Kentucky, Lexington, Ky.]) was puffed for 2 seconds and once every minute for a total of 8 puffs, with the flow rate of 1.05 L/min, to provide a standard puff of 35 cm^3. The smoke machine was adjusted to produce a mixture of side stream smoke (89%) and mainstream smoke (11%) by smoldering 2 cigarettes at one time. The smoke chamber atmosphere was monitored for total suspended particulates (80-120 mg/m^3) and carbon monoxide (350 ppm). Beginning at day 7, (10) INK-ATTAC and (10) 3MR mice were treated with AP20187 (3×per week) or gancyclovir (5 consecutive days of treatment followed by 16 days off drug, repeated until the end of the experiment), respectively. An equal number of mice received the corresponding vehicle. The remaining 30 mice (15 INK-ATTAC and 15 3MR) were evenly split with 5 of each genetically modified strain placed into three different treatment groups. One group (n=10) received Nutlin-3A (25 mg/kg dissolved in 10% DMSO/3% Tween-20 in PBS, treated 14 days consecutively followed by 14 days off drug, repeated until the end of the experiment). One group (n=10) received ABT-263 (Navitoclax) (100 mg/kg dissolved in 15% DMSO/5% Tween-20, treated 7 days consecutively followed by 14 days off drug, repeated until the end of the experiment), and the last group (n=10) received only the vehicle used for ABT-263 (15% DMSO/5% Tween-20), following the same treatment regimen as ABT-263.
After two months of cigarette smoke exposure, lung function was assessed by monitoring oxygen saturation using the MouseSTAT PhysioSuite pulse oximeter (Kent Scientific). Animals were anesthetized with isoflurane (1.5%) and the toe clip was applied. Mice were monitored for 30 seconds and the average peripheral capillary oxygen saturation (SpO2) measurement over this duration was calculated.

INKattac mice [3] = assay: Micro CT estimate of intervertebral disc space (IVS) in aged mice
Description: (§1) This example describes a method for assessing the effect of senotlytic agents or killing of senescent cells on bone structure. Two groups of INKattac mice are used for this method: mice treated from 12-28 months of age with vehicle (“old” controls) and mice treated from 12-28 months of age with AP20187. All mice used in this example were male. After sacrifice the cadavers were fixed in 10% neutral buffered formalin, and stored at 4° C.
Intervertebral discs are type of cartilage filling the space between vertebras of the spine. They are known to decrease in function and volume with age. We estimated the intervertebral volumes between specific vertebra in spines of aged mice, with and without senolytic treatment, to determine if intervertebral disc space was maintained in aged animals through senolysis.
While IVDs cannot be directly visualized with the micro-CT method of example 43, an image segmentation protocol was developed to infer disc volume by determining the volume between lumbar vertebra L6 and L5, L5 and L4, and L4 and L3 to estimate the intervertebral disc space (IVS) (FIG. 94).

INKattac mice [4] = assay: Micro CT of femoral cortical bone in INKattac mice treated from 12-28 months
Description: as §1
Mice were cleaned of excess tissue, and placed in a Bruker 1176 “Skyscanner” for micro computerized tomographic (mCT) scanning. A variety of settings were explored to visualize whole skeletons, the following settings were used in this example: 65 Kv, 385 μA, 17.58 μm, 0.5 mm Al filter, rotation step 0.5, frame averaging 6, smoothing 2, smoothing kernel 2, ring artifact correction 4, and beam hardening correction 30%. Typical acquisition consisted of a whole body scan, followed by additional scans if necessary for further data exploration.
Reconstruction of the raw data was carried out. Subvoluming of anatomical features of interest was then further performed on the whole skeleton, using DataViewer, or CtAn software (Bruker). […]
The average thickness of each 2 mm subvolume was measured in treated versus non-treated animals. […]

CC[C@H](C(=O)N1CCCC[C@H]1C(=O)O[C@H](CCc1ccc(OC)c(OC)c1)c1cccc(OCC(=O)NCC(CNC(=O)COc2cccc([C@@H](CCc3ccc(OC)c(OC)c3)OC(=O)[C@@H]3CCCCN3C(=O)[C@@H](CC)c3cc(OC)c(OC)c(OC)c3)c2)CN(C)C)c1)c1cc(OC)c(OC)c(OC)c1 [AP20187]
time to cardiac arrest after lethal isoproterenol (cardio-protection) ([1]; 0.2 or 2 mg/kg three times/week from 12 to 18 months): sustained youthful cardio-protection against isoproterenol
Sur2a expression in heart ([1]; 18-month-old female mice): sustained Sur2a expression
gastrocnemius and tibialis anterior muscle weight (aging mice; 28 month old mice): decreased muscle loss with age
exercise distance on treadmill (aging mice; 28 months, versus vehicle): increased exercise distance; also recorded: greater distances
exercise duration on treadmill (aging mice; 28 months, versus vehicle): increased duration of exercise; also recorded: exercised for longer
grip strength (aging mice; 28 months, versus vehicle): increased grip strength; also recorded: decreased loss of muscle strength
SpO2 levels versus untreated controls [2]: statistically significant increases
improvement of intervertebral disc space (IVS) (INKattac mice [3]; L6-L5, L5-L4, L4-L3, versus vehicle): 25-33%
IVS versus vehicle treated controls, significance (INKattac mice [3]; three sites in the spine): statistically significantly greater
cortical thickness of femoral bone (INKattac mice [4]; aged mice, versus controls): increased
retention of cortical bone volume (BV/TV) with age (INKattac mice [4]; male mice treated from 12-28 months, 2 mm subvolume of femur mid-diaphysis): 6.1%

— patent publication US20190022225A1, “PROTOCOL FOR INCREASING LIFE EXPECTANCY IN A TEST SUBJECT” (Mayo Foundation for Medical Education and Research, priority 2015, published 2019)
